The results in this text go back to patent US10611777B2, “Imidazopyridazine compounds and their use” (HUTCHISON MEDIPHARMA LIMITED, priority 2014, dated 2020).

Common to all, as to type: biochemical
For one test, the target named is PI3K-α (p110α/p85α) (Homo sapiens (Human), UniProt P42336). As to the kind of experiment: Fluorescent determination of PI3K enzyme activity (Transcreener KINASE Assay), PI3K-α. The note with it: inhibition rate at 1 μM. Here is the method: Inhibition rates were calculated as follow: IH %=(ADP amount under 2% DMSO well−ADP amount under test compound well)/ADP amount under 2% DMSO well×100%.

A further test deals with PI3K-δ (p110δ/p85α) (Homo sapiens (Human), UniProt O00329). As to the kind of experiment: Fluorescent determination of PI3K enzyme activity (Transcreener KINASE Assay), PI3K-δ. The note with it: for PI3K-δ IH%: inhibition rate at 1 μM.
The target in another test is PI3K-β (p110β/p85α) (Homo sapiens (Human), UniProt P42338). As to the kind of experiment: Fluorescent determination of PI3K enzyme activity (Transcreener KINASE Assay), PI3K-β.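 Also: Far-red fluorescence polarization immunoassay detecting ADP produced by the kinase, 80 min enzyme reaction at room temperature, inhibition relative to ADP formed in 2% DMSO control wells.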 The note with it: inhibition rate at 1 μM.
The target of the next test is PI3K-γ (p110γ) (Homo sapiens (Human), UniProt P48736). Put plainly: Fluorescent determination of PI3K enzyme activity (Transcreener KINASE Assay), PI3K-γ.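 As to all read-outs here: p110γ enzyme reaction for 80 min at room temperature, ADP formed measured by far-red competitive fluorescence polarization immunoassay, inhibition relative to wells with 2% DMSO only.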 Conditions: for PI3K-γ IH%: inhibition rate at 1 μM.

Like-named read-outs stand apart in the source and are kept apart here.

Chain of PI3K-β (p110β/p85α) (P42338 whole entry, species assumed): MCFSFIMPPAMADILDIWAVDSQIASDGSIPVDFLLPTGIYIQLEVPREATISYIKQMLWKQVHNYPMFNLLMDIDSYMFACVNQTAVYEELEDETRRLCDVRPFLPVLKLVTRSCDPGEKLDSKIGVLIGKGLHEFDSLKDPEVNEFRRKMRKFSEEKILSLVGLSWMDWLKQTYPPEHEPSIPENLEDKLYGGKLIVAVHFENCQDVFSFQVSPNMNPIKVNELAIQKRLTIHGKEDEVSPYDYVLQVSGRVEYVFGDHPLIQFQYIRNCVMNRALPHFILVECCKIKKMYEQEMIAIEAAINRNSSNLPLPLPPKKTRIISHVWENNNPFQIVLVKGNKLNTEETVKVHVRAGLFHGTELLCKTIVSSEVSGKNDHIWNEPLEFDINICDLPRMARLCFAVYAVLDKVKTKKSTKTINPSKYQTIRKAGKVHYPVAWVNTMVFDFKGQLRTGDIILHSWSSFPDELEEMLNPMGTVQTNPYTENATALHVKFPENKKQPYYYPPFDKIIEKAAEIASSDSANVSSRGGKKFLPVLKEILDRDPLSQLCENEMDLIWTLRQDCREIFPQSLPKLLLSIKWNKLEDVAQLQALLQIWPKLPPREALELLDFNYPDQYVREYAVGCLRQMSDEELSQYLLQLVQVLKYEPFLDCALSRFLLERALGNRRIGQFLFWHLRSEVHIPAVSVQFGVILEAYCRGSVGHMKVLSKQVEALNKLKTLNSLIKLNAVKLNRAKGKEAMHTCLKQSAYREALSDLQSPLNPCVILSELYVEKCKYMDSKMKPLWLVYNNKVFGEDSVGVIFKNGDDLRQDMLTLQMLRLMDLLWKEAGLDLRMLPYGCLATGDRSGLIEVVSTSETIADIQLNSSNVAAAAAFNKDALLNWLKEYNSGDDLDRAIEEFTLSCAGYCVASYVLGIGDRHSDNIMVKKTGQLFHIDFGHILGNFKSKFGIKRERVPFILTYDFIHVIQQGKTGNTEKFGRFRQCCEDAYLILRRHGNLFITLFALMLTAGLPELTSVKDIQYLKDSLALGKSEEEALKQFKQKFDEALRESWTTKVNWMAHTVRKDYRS
Chain of PI3K-β (p110β/p85α) (P27986 whole entry partner, species assumed): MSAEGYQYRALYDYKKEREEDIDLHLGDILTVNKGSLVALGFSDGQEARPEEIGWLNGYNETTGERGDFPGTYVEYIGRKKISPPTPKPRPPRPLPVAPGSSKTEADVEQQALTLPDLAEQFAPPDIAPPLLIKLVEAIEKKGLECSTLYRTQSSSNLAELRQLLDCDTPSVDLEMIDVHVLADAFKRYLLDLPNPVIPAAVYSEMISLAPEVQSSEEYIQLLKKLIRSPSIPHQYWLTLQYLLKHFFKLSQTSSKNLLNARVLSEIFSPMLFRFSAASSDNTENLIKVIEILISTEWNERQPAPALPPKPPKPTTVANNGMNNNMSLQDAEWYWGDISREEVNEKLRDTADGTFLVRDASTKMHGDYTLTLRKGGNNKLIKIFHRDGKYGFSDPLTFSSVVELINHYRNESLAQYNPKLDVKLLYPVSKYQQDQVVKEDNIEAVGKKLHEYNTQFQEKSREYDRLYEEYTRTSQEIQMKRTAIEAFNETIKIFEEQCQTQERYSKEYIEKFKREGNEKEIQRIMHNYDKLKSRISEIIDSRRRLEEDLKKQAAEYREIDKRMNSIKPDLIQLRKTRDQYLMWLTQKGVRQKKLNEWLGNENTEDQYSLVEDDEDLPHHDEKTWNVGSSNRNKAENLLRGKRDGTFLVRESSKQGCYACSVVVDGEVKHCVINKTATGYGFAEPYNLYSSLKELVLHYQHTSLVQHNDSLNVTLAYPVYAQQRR
Chain of PI3K-γ (p110γ) (P48736 whole entry, species assumed): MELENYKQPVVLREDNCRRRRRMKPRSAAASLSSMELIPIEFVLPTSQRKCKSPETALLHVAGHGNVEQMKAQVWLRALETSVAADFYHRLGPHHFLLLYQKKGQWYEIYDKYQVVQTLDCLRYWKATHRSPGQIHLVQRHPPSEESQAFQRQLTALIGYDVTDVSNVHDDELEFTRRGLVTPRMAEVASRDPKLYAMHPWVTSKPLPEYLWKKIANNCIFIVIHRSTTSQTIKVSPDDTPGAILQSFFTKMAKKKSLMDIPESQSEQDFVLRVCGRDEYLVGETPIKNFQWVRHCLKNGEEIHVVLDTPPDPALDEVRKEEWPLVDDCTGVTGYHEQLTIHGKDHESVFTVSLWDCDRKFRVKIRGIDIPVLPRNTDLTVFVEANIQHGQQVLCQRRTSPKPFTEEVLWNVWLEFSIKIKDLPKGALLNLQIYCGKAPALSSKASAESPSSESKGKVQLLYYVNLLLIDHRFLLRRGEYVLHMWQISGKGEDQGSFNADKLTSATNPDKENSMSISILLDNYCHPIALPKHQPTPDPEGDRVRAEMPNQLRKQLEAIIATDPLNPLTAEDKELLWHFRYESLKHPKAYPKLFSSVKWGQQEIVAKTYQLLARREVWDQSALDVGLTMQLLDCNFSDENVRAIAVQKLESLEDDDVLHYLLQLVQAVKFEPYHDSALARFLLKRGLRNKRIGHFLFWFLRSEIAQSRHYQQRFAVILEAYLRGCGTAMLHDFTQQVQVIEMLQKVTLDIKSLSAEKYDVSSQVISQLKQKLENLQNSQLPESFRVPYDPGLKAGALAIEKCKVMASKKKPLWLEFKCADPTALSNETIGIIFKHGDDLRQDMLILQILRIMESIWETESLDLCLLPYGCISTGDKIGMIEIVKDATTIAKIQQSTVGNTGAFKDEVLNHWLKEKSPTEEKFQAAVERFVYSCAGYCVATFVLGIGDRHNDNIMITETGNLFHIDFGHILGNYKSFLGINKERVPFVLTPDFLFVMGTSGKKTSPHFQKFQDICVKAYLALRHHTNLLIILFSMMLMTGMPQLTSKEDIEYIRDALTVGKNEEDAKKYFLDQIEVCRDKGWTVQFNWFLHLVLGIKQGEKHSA
Chain of PI3K-δ (p110δ/p85α) (O00329 whole entry, species assumed): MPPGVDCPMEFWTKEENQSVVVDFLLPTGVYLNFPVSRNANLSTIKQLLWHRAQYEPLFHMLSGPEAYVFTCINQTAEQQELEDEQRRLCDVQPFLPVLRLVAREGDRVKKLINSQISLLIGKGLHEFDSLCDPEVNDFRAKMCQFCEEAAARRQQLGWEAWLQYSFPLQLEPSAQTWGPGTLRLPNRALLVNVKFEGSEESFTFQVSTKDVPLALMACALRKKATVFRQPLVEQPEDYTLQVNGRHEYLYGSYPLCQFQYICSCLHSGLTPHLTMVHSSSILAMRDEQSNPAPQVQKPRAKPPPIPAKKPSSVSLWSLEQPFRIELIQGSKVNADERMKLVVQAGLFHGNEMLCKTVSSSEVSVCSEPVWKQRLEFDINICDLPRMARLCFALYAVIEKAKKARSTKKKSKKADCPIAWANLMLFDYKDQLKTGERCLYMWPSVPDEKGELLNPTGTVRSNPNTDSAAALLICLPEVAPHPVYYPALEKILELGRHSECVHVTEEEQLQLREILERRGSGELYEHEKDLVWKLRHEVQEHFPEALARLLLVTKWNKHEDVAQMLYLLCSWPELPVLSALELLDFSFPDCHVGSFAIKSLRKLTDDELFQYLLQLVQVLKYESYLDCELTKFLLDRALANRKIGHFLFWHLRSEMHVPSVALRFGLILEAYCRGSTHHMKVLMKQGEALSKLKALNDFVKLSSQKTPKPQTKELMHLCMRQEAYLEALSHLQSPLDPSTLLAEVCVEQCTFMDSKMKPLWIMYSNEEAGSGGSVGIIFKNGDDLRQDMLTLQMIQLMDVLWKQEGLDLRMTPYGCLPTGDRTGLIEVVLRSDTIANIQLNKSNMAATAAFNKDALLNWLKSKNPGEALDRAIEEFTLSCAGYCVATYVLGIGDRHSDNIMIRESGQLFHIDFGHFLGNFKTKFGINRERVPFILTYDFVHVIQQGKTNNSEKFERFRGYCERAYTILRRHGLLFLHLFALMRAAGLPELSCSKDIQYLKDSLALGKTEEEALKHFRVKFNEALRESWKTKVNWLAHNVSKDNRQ
Chain of PI3K-δ (p110δ/p85α) (P27986 whole entry partner, species assumed): as the sequence (P27986 whole entry partner, species assumed) above
Chain of PI3K-α (p110α/p85α) (P42336 whole entry, species assumed): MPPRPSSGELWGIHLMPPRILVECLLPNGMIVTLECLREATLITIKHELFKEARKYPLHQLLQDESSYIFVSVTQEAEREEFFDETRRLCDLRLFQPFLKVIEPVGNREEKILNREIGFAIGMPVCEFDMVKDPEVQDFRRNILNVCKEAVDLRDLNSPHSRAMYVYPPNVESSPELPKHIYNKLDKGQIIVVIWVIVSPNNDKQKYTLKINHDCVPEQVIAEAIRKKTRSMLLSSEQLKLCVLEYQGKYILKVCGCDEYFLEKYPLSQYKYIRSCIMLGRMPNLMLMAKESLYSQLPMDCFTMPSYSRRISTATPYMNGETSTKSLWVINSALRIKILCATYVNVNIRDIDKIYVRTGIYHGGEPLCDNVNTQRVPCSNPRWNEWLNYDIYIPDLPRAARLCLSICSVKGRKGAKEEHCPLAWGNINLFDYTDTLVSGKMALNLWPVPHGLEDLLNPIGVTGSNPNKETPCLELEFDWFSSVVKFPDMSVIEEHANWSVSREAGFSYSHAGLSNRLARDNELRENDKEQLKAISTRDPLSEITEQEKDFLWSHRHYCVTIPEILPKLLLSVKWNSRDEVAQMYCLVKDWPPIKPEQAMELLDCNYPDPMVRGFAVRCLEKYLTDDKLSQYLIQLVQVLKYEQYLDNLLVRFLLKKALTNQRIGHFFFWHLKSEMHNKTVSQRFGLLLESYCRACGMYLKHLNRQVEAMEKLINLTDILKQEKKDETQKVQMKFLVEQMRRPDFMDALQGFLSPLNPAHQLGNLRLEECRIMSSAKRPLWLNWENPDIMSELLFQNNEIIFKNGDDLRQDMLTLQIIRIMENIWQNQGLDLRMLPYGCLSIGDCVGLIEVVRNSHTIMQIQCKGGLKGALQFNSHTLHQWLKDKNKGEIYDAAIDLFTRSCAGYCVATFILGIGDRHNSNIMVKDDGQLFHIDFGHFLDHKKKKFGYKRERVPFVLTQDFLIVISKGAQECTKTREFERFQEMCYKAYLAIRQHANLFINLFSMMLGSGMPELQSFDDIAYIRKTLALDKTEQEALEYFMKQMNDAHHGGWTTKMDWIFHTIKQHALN
Chain of PI3K-α (p110α/p85α) (P27986 whole entry partner, species assumed): as the sequence (P27986 whole entry partner, species assumed) above
Protocol for PI3K-β (p110β/p85α): (§1) PI3K kinases including p110α/p85α and p110γ were purchased from Invitrogen, p110δ/p85α and p110β/p85α were from Millipore.
(§2) It is a universal, homogenous, high throughput screening (HTS) technology using a far-red, competitive fluorescence polarization immunoassay based on the defection of ADP to monitor the activity of enzymes that catalyze group transfer reactions. […] The reaction mixture was added into desired wells of a 96-well plate. The plate was sealed and incubated for 80 min at room temperature. • 2) Next, 25 uL ADP detection mix was added into each well. The plate was sealed again and incubated for 60 min at room temperature. Then fluorescence polarization was measured by Tecan Infinite F500 Reader.
(§3) Data was analyzed and IC50 values were generated using the add-in software for Microsoft Excel, Xlfit™ (version 5.3).
Protocol for PI3K-γ (p110γ): as §1, §2, §3
Protocol for PI3K-δ (p110δ/p85α): as §1, §2, §3

Turning to `C[C@H](Nc1ncnc(N)c1-c1nn[nH]n1)c1cc2ncc(Cl)n2nc1-c1ccccc1` [Compound 21], the “PI3K-α IH%” value on PI3K-α (p110α/p85α) was 21.7%.

As a reminder, the IC50 is the concentration that inhibits the measured activity by half. As for `CCC(Nc1ncnc2[nH]cnc12)c1cc2ncc(Cl)n2nc1-c1ccccc1F` (single isomer, unassigned) [Compound 26], the IC50 on PI3K-δ (p110δ/p85α) came to 839 nM.

As for `CC[C@@H](Nc1ncnc(N)c1C#N)c1cc2ncc(Cl)n2nc1-c1ccccc1` [Compound 5, (R)-4-amino-6-((1-(3-chloro-6-phenylimidazo[1,2-b]pyridazin-7-yl)propyl)amino)pyrimidine-5-carbonitrile], at PI3K-δ (p110δ/p85α), the “PI3K-δ IH%” value turned out to be 47.3%. Moreover, on PI3K-β (p110β/p85α), the “PI3K-β IH%” value was −10.7%.

In the case of `C[C@H](Nc1nc(N)ncc1C#N)c1cc2ncc(Cl)n2nc1-c1ccccc1` [Compound 34], the “PI3K-δ IH%” value on PI3K-δ (p110δ/p85α) is 8.3%. Besides, the “PI3K-γ IH%” value at PI3K-γ (p110γ) is reported as −19.3%. The “PI3K-β IH%” value on PI3K-β (p110β/p85α) came to 3.7%.

Turning to `C[C@H](Nc1ncnc(N)c1C#N)c1cc2ncc(Cl)n2nc1-c1ccc2c(c1)OCCO2` [Compound 70], the IC50 came to 22 nM on PI3K-δ (p110δ/p85α) and 1980 nM on PI3K-γ (p110γ) (read-out: PI3K-γ IC50). Also, the “PI3K-β IH%” value at PI3K-β (p110β/p85α) was found to be 37.4%.

`Cc1cnc2cc([C@H](C)Nc3ncnc(N)c3C#N)c(-c3ccccc3)nn12` [Compound 22]: the “PI3K-β IH%” value on PI3K-β (p110β/p85α) was 76.7%. Besides, at PI3K-α (p110α/p85α), the “PI3K-α IH%” value was found to be 13.6%.

Take `C[C@H](Nc1ncnc(N)c1C(=O)N(C)C)c1cc2ncc(Cl)n2nc1-c1ccccc1` [Compound 56]: the “PI3K-δ IH%” value on PI3K-δ (p110δ/p85α) turned out to be 21.0%. Besides, the “PI3K-γ IH%” value at PI3K-γ (p110γ) stood at 1.0%. Further, the “PI3K-β IH%” value on PI3K-β (p110β/p85α) is recorded as 9.0%.

For `C[C@H](Nc1nc(O)nc(N)c1C#N)c1cc2ncc(Cl)n2nc1-c1ccccc1` [Compound 55, (S)-4-amino-6-((1-(3-chloro-6-phenylimidazo[1,2-b]pyridazin-7-yl)ethyl)amino)-2-hydroxypyrimidine-5-carbonitrile], the “PI3K-δ IH%” value on PI3K-δ (p110δ/p85α) was determined as 60.3%. Also, at PI3K-γ (p110γ), the “PI3K-γ IH%” value is given as −4.7%. For the same molecule, the “PI3K-β IH%” value at PI3K-β (p110β/p85α) came out at 8.5%.

For the molecule `C[C@H](Nc1ncnc(N)c1C#N)c1cc2ncc(Cl)n2nc1-c1ccc2ccn(C)c2c1` [Compound 76], the “PI3K-δ IH%” value on PI3K-δ (p110δ/p85α) is 48.9%. Further, the “PI3K-γ IH%” value on PI3K-γ (p110γ) is −14.3%. Further, the “PI3K-β IH%” value at PI3K-β (p110β/p85α) was determined as 54.9%.

In the case of `CCC(Nc1ncnc(N)c1C#N)c1cc2ncc(Cl)n2nc1-c1ccccn1` (stereo not drawn) [Compound 28], at PI3K-δ (p110δ/p85α), the “PI3K-δ IH%” value was found to be 39.8%. The “PI3K-γ IH%” value on PI3K-γ (p110γ) came to 18.8%. The “PI3K-β IH%” value at PI3K-β (p110β/p85α) was 11.1%.

In the case of `C[C@@H](Nc1ncnc(N)c1C#N)c1cc2ncc(Cl)n2nc1-c1ccccn1` [Compound 7, (R)-4-amino-6-((1-(3-chloro-6-(pyridin-2-yl)imidazo[1,2-b]pyridazin-7-yl)ethyl)amino)pyrimidine-5-carbonitrile], on PI3K-δ (p110δ/p85α), the “PI3K-δ IH%” value is on record as 12.5%. Further, the “PI3K-γ IH%” value at PI3K-γ (p110γ) is on record as 61.1%. Moreover, the “PI3K-β IH%” value on PI3K-β (p110β/p85α) is given as −2.7%.

As to `CCC(Nc1ncnc2[nH]cnc12)c1cc2ncc(Cl)n2nc1-c1ccccc1` (stereo not drawn) [Compound 14], on PI3K-δ (p110δ/p85α), the “PI3K-δ IH%” value is 51.0%. Besides, the “PI3K-γ IH%” value at PI3K-γ (p110γ) is reported as 22.5%. Further, the “PI3K-β IH%” value on PI3K-β (p110β/p85α) came out at 3.2%.

For the molecule `CC[C@@H](Nc1ncnc(N)c1C#N)c1cc2ncc(Cl)n2nc1-c1cccc(F)c1` [Compound 43, (R)-4-amino-6-((1-(3-chloro-6-(3-fluorophenyl)imidazo[1,2-b]pyridazin-7-yl)propyl)amino)pyrimidine-5-carbonitrile], the “PI3K-γ IH%” value on PI3K-γ (p110γ) worked out at 27.2%. Besides, the “PI3K-β IH%” value at PI3K-β (p110β/p85α) is given as 23.6%.

For the molecule `C[C@@H](c1cc2ncc(Cl)n2nc1-c1ccccc1)N(C)c1ncnc(N)c1C#N` [Compound 42, (S)-4-amino-6-((1-(3-chloro-6-phenylimidazo[1,2-b]pyridazin-7-yl)ethyl)(methyl)amino)pyrimidine-5-carbonitrile], the “PI3K-γ IH%” value at PI3K-γ (p110γ) is reported as 18.2%. Further, the “PI3K-β IH%” value on PI3K-β (p110β/p85α) was determined as 7.4%.

Regarding `C[C@H](Nc1ncnc2[nH]ccc12)c1cc2ncc(Cl)n2nc1-c1ccccc1` [Compound 17], on PI3K-γ (p110γ), the “PI3K-γ IH%” value amounted to 61.2%. The “PI3K-β IH%” value at PI3K-β (p110β/p85α) turned out to be 15.8%.

`C[C@@H](Nc1ncnc(N)c1C#N)c1cc2ncc(Cl)n2nc1-c1ccc2scnc2c1` [Compound 75]: the “PI3K-δ IH%” value on PI3K-δ (p110δ/p85α) is 1.0%. For the same molecule, the “PI3K-γ IH%” value on PI3K-γ (p110γ) is reported as 31.7%. Moreover, the “PI3K-β IH%” value on PI3K-β (p110β/p85α) is listed as −7.1%.

Consider `C[C@H](Nc1ncnc(N)c1C#N)c1cc2ncc(Cl)n2nc1-c1ccccn1` [Compound 8, (S)-4-amino-6-((1-(3-chloro-6-(pyridin-2-yl)imidazo[1,2-b]pyridazin-7-yl)ethyl)amino)pyrimidine-5-carbonitrile], for which, on PI3K-γ (p110γ), the “PI3K-γ IH%” value is on record as −2.3%. The “PI3K-β IH%” value at PI3K-β (p110β/p85α) is given as 37.7%.

Take `C[C@H](Nc1ncnc(N)c1C#N)c1cc2ncc(Cl)n2nc1-c1cccc(C(C)(C)O)c1` (single isomer, unassigned) [Compound 79, (chiral)-4-amino-6-((1-(3-chloro-6-(3-(2-hydroxypropan-2-yl)phenyl)imidazo[1,2-b]pyridazin-7-yl)ethyl)amino)pyrimidine-5-carbonitrile]: the “PI3K-γ IH%” value at PI3K-γ (p110γ) was found to be 56.2%. In addition, the “PI3K-β IH%” value at PI3K-β (p110β/p85α) worked out at 43.8%.

As to `C[C@H](Nc1ncnc(N)c1C#N)c1cc2ncc(Cl)n2nc1-c1cc(F)ccc1F` [Compound 35], the “PI3K-γ IH%” value at PI3K-γ (p110γ) is reported as 64.6%. Besides, at PI3K-β (p110β/p85α), the “PI3K-β IH%” value is recorded as 67.6%.

Regarding `CCC(Nc1ncnc2[nH]cnc12)c1cc2ncc(Cl)n2nc1-c1ccccc1F` (single isomer, unassigned) [Compound 25], the IC50 against PI3K-δ (p110δ/p85α) worked out at 4 nM; against PI3K-γ (p110γ), 2590 nM.

Consider `CCC(Nc1ncnc2[nH]cnc12)c1cc2ncc(Cl)n2nc1-c1ccccc1F` (stereo not drawn) [Compound 26], for which, on PI3K-γ (p110γ), the “PI3K-γ IH%” value was found to be 8%. Besides, the “PI3K-β IH%” value on PI3K-β (p110β/p85α) was −7.5%.

Regarding `C[C@H](Nc1ncnc(N)c1-c1ccc(O)c(F)c1)c1cc2ncc(Cl)n2nc1-c1ccccc1` [Compound 38], the “PI3K-γ IH%” value on PI3K-γ (p110γ) was found to be 54.3%. For the same molecule, the “PI3K-β IH%” value at PI3K-β (p110β/p85α) is reported as −2.2%.

For `COc1cc(-c2c(N)ncnc2N[C@@H](C)c2cc3ncc(Cl)n3nc2-c2ccccc2)ccn1` [Compound 50], the “PI3K-δ IH%” value at PI3K-δ (p110δ/p85α) is 68.9%. For the same molecule, the “PI3K-γ IH%” value on PI3K-γ (p110γ) was found to be 5.5%. Moreover, the “PI3K-β IH%” value on PI3K-β (p110β/p85α) is −14.1%.
